Test results from patent publication US20110166121A1 (LG LIFE SCIENCES LTD., priority 2008, published 2011).
pKi: −log10 of the molar value.

What follows are molecules tested on Human platelet aggregation caused by ADP (assay: Inhibition of ADP-induced platelet aggregation (Mimic-human PRP)). Details: 20 μM ADP, human platelet concentrate diluted with PPP, absorption at 595 nm.
Format: cell-based
Procedure, shortened: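 Ki came from non-linear sigmoidal fits of inhibition, measured as the 3-min rise in absorbance at 595 nm after 20 μM ADP, relative to 0/20 μM ADP controls. Platelets (3–4×10^8/mL in PPP-diluted human PRP) were exposed to 0.01–30 μM compound for 20 min at room temperature beforehand.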
Molecule CCCc1cc2c(N3CCn4c(nnc4C(F)(F)F)C3)nc(-n3cncn3)nc2s1 [Example 9-43, 7-(6-Propyl-2-[1,2,4]triazol-1-yl-thieno[2,3-d]pyrimidin-4-yl)-3-trifluoromethyl-5,6,7,8-tetrahydro-[1,2,4]triazolo[4,3-a]pyrazine] has a pKi of 6.48. CCCc1cc2c(N3CCn4c(nnc4C(F)(F)F)C3)nc(OCCn3cncn3)nc2s1 [Example 9-44, 7-[6-Propyl-2-(2-[1,2,4]triazol-1-yl-ethoxy)-thieno[2,3-d]pyrimidin-4-yl]-3-trifluoromethyl-5,6,7,8-tetrahydro-[1,2,4]triazolo[4,3-a]pyrazine] was tested, and the pKi was 8.01. Molecule CCCc1cc2c(N3CCn4c(nnc4C(F)(F)F)C3)nc(NCCc3c[nH]cn3)nc2s1 [Example 9-45, [2-(1H-Imidazol-4-yl)-ethyl]-[6-propyl-4-(3-trifluoromethyl-5,6-dihydro-8H-[1,2,4]triazolo[4,3-a]pyrazin-7-yl)-thieno[2,3-d]pyrimidin-2-yl]-amine] has a pKi of 7.42. CCCc1cc2c(N3CCn4c(nnc4C(F)(F)F)C3)nc(-n3cnc(CCN)c3)nc2s1 [Example 9-46, 2-{1-[6-Propyl-4-(3-trifluoromethyl-5,6-dihydro-8H-[1,2,4]triazolo[4,3-a]pyrazin-7-yl)-thieno[2,3-d]pyrimidin-2-yl]-1H-imidazol-4-yl}-ethylamine] showed a pKi of 6.28. For CCCc1cc2c(N3CCn4c(nnc4C(F)(F)F)C3)nc(-n3ccc([N+](=O)[O-])c3)nc2s1 [Example 9-47, 7-[2-(3-Nitro-pyrrole-1-yl)-6-propyl-thieno[2,3-d]pyrimidin-4-yl]-3-trifluoromethyl-5,6,7,8-tetrahydro-[1,2,4]triazolo[4,3-a]pyrazine], the pKi was 5.41. With CCCc1cc2c(N3CCn4c(nnc4C(F)(F)F)C3)nc(N(CCO)c3cnccn3)nc2s1 [Example 9-50, 2-{[6-Propyl-4-(3-trifluoromethyl-5,6-dihydro-8H-[1,2,4]triazolo[4,3-a]pyrazin-7-yl)-thieno[2,3-d]pyrimidin-2-yl]-pyrazin-2-yl-amino}-ethanol] the pKi was 6.64. Molecule CCCc1cc2c(N3CCn4c(nnc4C(F)(F)F)C3)nc(N3CC(=O)N(CCO)C3=O)nc2s1 [Example 9-51, 3-(2-Hydroxy-ethyl)-1-[6-propyl-4-(3-trifluoromethyl-5,6-dihydro-8H-[1,2,4]triazolo[4,3-a]pyrazin-7-yl)-thieno[2,3-d]pyrimidin-2-yl]-imidazolidine-2,4-dione] has a pKi of 6.72. CCCc1cc2c(N3CCn4c(nnc4C(F)(F)F)C3)nc(-n3ccc(N)n3)nc2s1 [Example 9-52, 1-[6-Propyl-4-(3-trifluoromethyl-5,6-dihydro-8H-[1,2,4]triazolo[4,3-a]pyrazin-7-yl)-thieno[2,3-d]pyrimidin-2-yl]-1H-pyrazol-3-ylamine] showed a pKi of 7.80. CCCc1cc2c(N3CCn4c(nnc4C(F)(F)F)C3)nc(Nc3cc[nH]n3)nc2s1 [Example 9-53, [6-Propyl-4-(3-trifluoromethyl-5,6-dihydro-8H-[1,2,4]triazolo[4,3-a]pyrazin-7-yl)-thieno[2,3-d]pyrimidin-2-yl]-(1H-pyrazol-3-yl)-amine] was tested, and the pKi was 7.51. Work on CCCc1cc2c(N3CCn4c(nnc4C(F)(F)F)C3)nc(-n3ccc(NC(C)=O)n3)nc2s1 [Example 9-54, N-{1-[6-Propyl-4-(3-trifluoromethyl-5,6-dihydro-8H-[1,2,4]triazolo[4,3-a]pyrazin-7-yl)-thieno[2,3-d]pyrimidin-2-yl]-1H-pyrazol-3-yl}-acetamide] yielded a pKi of 6.89. In the case of CCCc1cc2c(N3CCn4c(nnc4C(F)(F)F)C3)nc(-n3cc(C)cn3)nc2s1 [Example 9-55, 7-[2-(4-Methyl-pyrazol-1-yl)-6-propyl-thieno[2,3-d]pyrimidin-4-yl]-3-trifluoromethyl-5,6,7,8-tetrahydro-[1,2,4]triazolo[4,3-a]pyrazine], the pKi was 6.47. CCCc1cc2c(N3CCn4c(nnc4C(F)(F)F)C3)nc(-n3cc(N)cn3)nc2s1 [Example 9-56, 1-[6-Propyl-4-(3-trifluoromethyl-5,6-dihydro-8H-[1,2,4]triazolo[4,3-a]pyrazin-7-yl)-thieno[2,3-d]pyrimidin-2-yl]-1H-pyrazol-4-ylamine] showed a pKi of 7.52. CCCc1cc2c(N3CCn4c(nnc4C(F)(F)F)C3)nc(-n3cc(NC(C)=O)cn3)nc2s1 [Example 9-57, N-{1-[6-Propyl-4-(3-trifluoromethyl-5,6-dihydro-8H-[1,2,4]triazolo[4,3-a]pyrazin-7-yl)-thieno[2,3-d]pyrimidin-2-yl]-1H-pyrazol-4-yl}-acetamide] was tested, and the pKi was 6.39. With CCCc1cc2c(N3CCn4c(nnc4C(F)(F)F)C3)nc(Nc3cn[nH]c3)nc2s1 [Example 9-58, [6-Propyl-4-(3-trifluoromethyl-5,6-dihydro-8H-[1,2,4]triazolo[4,3-a]pyrazin-7-yl)-thieno[2,3-d]pyrimidin-2-yl]-(1H-pyrazol-4-yl)-amine] the pKi was 7.66. Molecule CCCc1cc2c(N3CCn4c(nnc4C(F)(F)F)C3=O)nc(OCCC(=O)O)nc2s1 [Example 9-59, 3-[4-(8-Oxo-3-trifluoromethyl-5,6-dihydro-8H-[1,2,4]triazolo[4,3-a]pyrazin-7-yl)-6-propyl-thieno[2,3-d]pyrimidin-2-yloxy]-propionic acid] has a pKi of under 5.00. CCC(=O)c1cc2c(N3CCn4c(nnc4C(F)(F)F)C3)nc(OCCC(=O)O)nc2s1 [Example 9-61, 3-[6-Propionyl-4-(3-trifluoromethyl-5,6-dihydro-8H-[1,2,4]triazolo[4,3-a]pyrazin-7-yl)-thieno[2,3-d]pyrimidin-2-yloxy]-propionic acid] showed a pKi of under 5.00. With CCCCNC(=O)[C@H]1CCN(c2nc(N3CCn4c(nnc4C(F)(F)F)C3)c3cc(CCC)sc3n2)C1 [Example 9-62, (S)-1-[6-Propyl-4-(3-trifluoromethyl-5,6-dihydro-8H-[1,2,4]triazolo[4,3-a]pyrazin-7-yl)-thieno[2,3-d]pyrimidin-2-yl]-pyrrolidine-3-carboxylic acid butylamide] the pKi was 6.40. CCCCN(C)C(=O)[C@H]1CCN(c2nc(N3CCn4c(nnc4C(F)(F)F)C3)c3cc(CCC)sc3n2)C1 [Example 9-63, (S)-1-[6-Propyl-4-(3-trifluoromethyl-5,6-dihydro-8H-[1,2,4]triazolo[4,3-a]pyrazin-7-yl)-thieno[2,3-d]pyrimidin-2-yl]-pyrrolidine-3-carboxylic acid butyl-methyl-amide] gave a pKi of 5.70. For CCCc1cc2c(N3CCn4c(nnc4C(F)(F)F)C3)nc(N3CC[C@H](C(=O)NC4CCCC4)C3)nc2s1 [Example 9-64, (S)-1-[6-Propyl-4-(3-trifluoromethyl-5,6-dihydro-8H-[1,2,4]triazolo[4,3-a]pyrazin7-yl)-thieno[2,3-d]pyrimidin-2-yl]-pyrrolidine-3-carboxylic acid cyclopentylamide], the pKi was 5.85. For CCCc1cc2c(N3CCn4c(nnc4C(F)(F)F)C3)nc(N3CC[C@H](C(=O)N(C)C4CCCCC4)C3)nc2s1 [Example 9-65], the pKi was 5.03. With CCCc1cc2c(N3CCn4c(nnc4C(F)(F)F)C3)nc(OCCC(=O)NC)nc2s1 [Example 9-66, N-Methyl-3-[6-propyl-4-(3-trifluoromethyl-5,6-dihydro-8H-[1,2,4]triazolo[4,3-a]pyrazin-7-yl)-thieno[2,3-d]pyrimidin-2-yloxy]-propionamide] the pKi was 8.28. Molecule CCCc1cc2c(N3CCn4c(nnc4C(F)(F)F)C3)nc(OCCC(=O)N(C)C)nc2s1 [Example 9-67, N,N-Dimethyl-3-[6-propyl-4-(3-trifluoromethyl-5,6-dihydro-8H-[1,2,4]triazolo[4,3-a]pyrazin-7-yl)-thieno[2,3-d]pyrimidin-2-yloxy]-propionamide] has a pKi of 7.01. CCCc1cc2c(N3CCn4c(nnc4C(F)(F)F)C3)nc(OCCC(=O)N3CCCC3)nc2s1 [Example 9-68, 3-[6-Propyl-4-(3-trifluoromethyl-5,6-dihydro-8H-[1,2,4]triazolo[4,3-a]pyrazin-7-yl)-thieno[2,3-d]pyrimidin-2-yloxy]-1-pyrrolidin-1-yl-propan-1-one] was tested, and the pKi was 6.59. Work on CCCc1cc2c(N3CCn4c(nnc4C(F)(F)F)C3)nc(OCCC(=O)NC3CCCC3)nc2s1 [Example 9-69, N-Cyclopentyl-3-[6-propyl-4-(3-trifluoromethyl-5,6-dihydro-8H-[1,2,4]triazolo[4,3-a]pyrazin-7-yl)-thieno[2,3-d]pyrimidin-2-yloxy]-propionamide] yielded a pKi of 6.26. CCCc1cc2c(N3CCn4c(nnc4C(F)(F)F)C3)nc(OCCC(N)=O)nc2s1 [Example 9-70, 3-[6-Propyl-4-(3-trifluoromethyl-5,6-dihydro-8H-[1,2,4]triazolo[4,3-a]pyrazin-7-yl)-thieno[2,3-d]pyrimidin-2-yloxy]-propionamide] gave a pKi of 8.22. CCCc1cc2c(N3CCn4c(nnc4C(F)(F)F)C3)nc(OCCC#N)nc2s1 [Example 9-71, 3-[6-Propyl-4-(3-trifluoromethyl-5,6-dihydro-8H-[1,2,4]triazolo[4,3-a]pyrazin-7-yl)-thieno[2,3-d]pyrimidin-2-yloxy]-propionitrile] gave a pKi of 9.15. Work on CCCc1cc2c(N3CCn4c(nnc4C(F)(F)F)C3)nc(N3CC[C@H](C(=O)NN)C3)nc2s1 [Example 9-72, (S)-1-[6-Propyl-4-(3-trifluoromethyl-5,6-dihydro-8H-[1,2,4]triazolo[4,3-a]pyrazin-7-yl)-thieno[2,3-d]pyrimidin-2-yl]-pyrrolidine-3-carboxylic acid hydrazide] yielded a pKi of 9.22. For CCCc1cc2c(N3CCn4c(nnc4C(F)(F)F)C3)nc(OCCC(=O)NN)nc2s1 [Example 9-73, 3-[6-Propyl-4-(3-trifluoromethyl-5,6-dihydro-8H-[1,2,4]triazolo[4,3-a]pyrazin-7-yl)-thieno[2,3-d]pyrimidin-2-yloxy]-propionic acid hydrazide], the pKi was 7.80. CCCc1cc2c(N3CCn4c(nnc4C(F)(F)F)C3)nc(OC(C)CNC=O)nc2s1 (centres unmarked) [Example 9-74, N-{2-[6-Propyl-4-(3-trifluoromethyl-5,6-dihydro-8H-[1,2,4]triazolo[4,3-a]pyrazin-7-yl)-thieno[2,3-d]pyrimidin-2-yloxy]-propyl}-formamide] showed a pKi of 8.42.
